In test [1] the test system is A. baumannii MXX2240. Briefly: Antibacterial activity, MIC, resistant strain (Table 4). It is filed as cell-based. Conditions: Acinetobacter baumannii, MXX2240; resistant A. baumannii MMX2240, multi-drug resistant clinical isolate; read-out: MIC, MMX2240. Summed up: (§1)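 Activity was measured by microbroth dilution. The MIC, in μg/mL, is the lowest drug concentration that prevents macroscopically visible growth under the test conditions. The resistant strains are multi-drug resistant clinical isolates.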

The test system of test [2] is K. pneumoniae MXX1232. Described as above. Conditions: Klebsiella pneumoniae, MXX1232; resistant K. pneumoniae MMX1232, multi-drug resistant clinical isolate; read-out: MIC, MMX1232. It is filed as cell-based. Summed up:
as §1

Test [3] has as its system E. coli LZ3111. Nature of the test: Antibacterial activity, MIC, quinolone resistant strain (Table 2). The format is cell-based. Conditions: Escherichia coli, LZ3111, read-out: MIC LZ3111. Summed up: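 Microbroth dilution method; MIC (μg/mL) is the lowest drug concentration preventing macroscopically visible growth under test conditions.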
Test [4] has as its system Acinetobacter baumannii (A. baumannii) BAA747. Briefly: Antibacterial activity, MIC (Table 4). It is filed as cell-based. Conditions: A. baumannii BAA747, read-out: MIC, BAA747. Summed up:
as §1

Test [5] concerns Klebsiella pneumoniae (K. pneumoniae) 35657. Briefly: Antibacterial activity, MIC (Table 4). The format is cell-based. Conditions: K. pneumoniae 35657, read-out: MIC, 35657. Summed up:
as §1

In test [6] the test system is E. coli 25922. Nature of the test: Antibacterial activity, microbroth dilution MIC (Table 1). It is filed as cell-based, Escherichia coli. Conditions: Escherichia coli; microbroth dilution; control Gram-negative E. coli 25922 strain; read-out: MIC, 25922. Summed up: (§2)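 Each strain is exposed to test compound in a microbroth dilution series; visible growth is scored macroscopically, and the lowest growth-free concentration is recorded as MIC in μg/mL.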

The test system of test [7] is Escherichia coli (E. coli) BAS849. The description is as above. It is filed as cell-based. Conditions: microbroth dilution, super sensitive Gram-negative E. coli BAS849, read-out: MIC, BAS849. Summed up:
as §2

Test [8] relates to Staphylococcus aureus (S. aureus) 29213. Described as above. It is filed as cell-based. Conditions: microbroth dilution, Gram-positive S. aureus 29213, read-out: MIC, 29213. Summed up:
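MIC (μg/mL) is taken as the lowest concentration with no macroscopically visible growth. Strains tested by microbroth dilution: Gram-positive S. aureus 29213, control Gram-negative E. coli 25922, and super-sensitive E. coli BAS849.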

The subject of test [9] is Pseudomonas aeruginosa (P. aeruginosa) 27853. Briefly: Antibacterial activity, MIC (Table 5). It is filed as cell-based. Conditions: P. aeruginosa 27853, read-out: MIC, 27853. Summed up:
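Activity was measured by microbroth dilution. The MIC, in μg/mL, is the lowest drug concentration that prevents macroscopically visible growth under the test conditions.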

In brackets after ≈: the same amount, converted by molar mass.

On to `CCc1c(-c2cnc3cc[nH]c3c2)[nH]c(=O)c(C(=O)O)c1O` [Cpd 430, 5-ethyl-4-hydroxy-2-oxo-6-(1H-pyrrolo[3,2-b]pyridin-6-yl)-1,2-dihydropyridine-3-carboxylic acid], for which the minimum inhibitory concentration (MIC) in test [1], in test [2], in test [3], in test [4], in test [5] and in [6] was 12.5 to 150 µg/mL (≈ 41.8 to 501 µM) in each case. Also, the MIC in test [7], in test [8] and in test [9] was 12.5 to 150 µg/mL (≈ 41.8 to 501 µM) in each case.

For `Cc1c(-c2cnc3cc[nH]c3c2)[nH]c(=O)c(C(=O)O)c1O` [Cpd 431, 4-hydroxy-5-methyl-2-oxo-6-(1H-pyrrolo[3,2-b]pyridin-6-yl)-1,2-dihydropyridine-3-carboxylic acid], the minimum inhibitory concentration (MIC) in test [1], in [2], in test [3], in [4], in [5] and in test [6] was 12.5 to 150 µg/mL (≈ 43.8 to 526 µM) in each case. Moreover, the MIC in [7], in test [8] and in test [9] was 12.5 to 150 µg/mL (≈ 43.8 to 526 µM) each time.

Turning to `CCc1c(-c2ccc3c(c2)[nH]c2ccccc23)[nH]c(=O)c(C(=O)O)c1O` [Cpd 432, 6-(9H-carbazol-2-yl)-5-ethyl-4-hydroxy-2-oxo-1,2-dihydropyridine-3-carboxylic acid], the MIC in [1] is 12.5 to 150 µg/mL (≈ 35.9 to 431 µM); in test [2], 12.5 to 150 µg/mL (≈ 35.9 to 431 µM); in test [3], 12.5 to 150 µg/mL (≈ 35.9 to 431 µM); in test [4], 1 to 3.5 µg/mL (≈ 2.87 to 10 µM); in test [5] it was 3.5 to 12.5 µg/mL (≈ 10 to 35.9 µM); in [6], 3.5 to 12.5 µg/mL (≈ 10 to 35.9 µM). Moreover, the minimum inhibitory concentration (MIC) in test [7] was less than 1 µg/mL; in test [8] it was less than 1 µg/mL; in [9] it was 12.5 to 150 µg/mL (≈ 35.9 to 431 µM).

With `CCc1c(-c2ccc3cc[nH]c3n2)[nH]c(=O)c(C(=O)O)c1O` [Cpd 433, 5-ethyl-4-hydroxy-2-oxo-6-(1H-pyrrolo[2,3-b]pyridin-6-yl)-1,2-dihydropyridine-3-carboxylic acid], the MIC in test [1] is 12.5 to 150 µg/mL (≈ 41.8 to 501 µM); in test [2], 12.5 to 150 µg/mL (≈ 41.8 to 501 µM); in test [3], 12.5 to 150 µg/mL (≈ 41.8 to 501 µM); in test [4] it was 3.5 to 12.5 µg/mL (≈ 11.7 to 41.8 µM); in [5], 3.5 to 12.5 µg/mL (≈ 11.7 to 41.8 µM); in test [6], 12.5 to 150 µg/mL (≈ 41.8 to 501 µM). The MIC was less than 1 µg/mL in test [7], 12.5 to 150 µg/mL (≈ 41.8 to 501 µM) in test [8] and 12.5 to 150 µg/mL (≈ 41.8 to 501 µM) in test [9].

With `Cc1c(-c2ccc3cc[nH]c3n2)[nH]c(=O)c(C(=O)O)c1O` [Cpd 434, 4-hydroxy-5-methyl-2-oxo-6-(1H-pyrrolo[2,3-b]pyridin-6-yl)-1,2-dihydropyridine-3-carboxylic acid], the MIC in [1], in test [2], in test [3], in [4], in test [5] and in [6] was 12.5 to 150 µg/mL (≈ 43.8 to 526 µM) in each case. Moreover, the MIC in test [7], in test [8] and in [9] was 12.5 to 150 µg/mL (≈ 43.8 to 526 µM) each time.

For `CCc1c(-c2ccc3c(ccn3-c3ccccc3)c2)[nH]c(=O)c(C(=O)O)c1O` [Cpd 435, 5-ethyl-4-hydroxy-2-oxo-6-(1-phenyl-1H-indol-5-yl)-1,2-dihydropyridine-3-carboxylic acid], the MIC in test [1], in [2], in test [3], in [4], in [5] and in test [6] was 12.5 to 150 µg/mL (≈ 33.4 to 401 µM) throughout. Further, the MIC in test [7] was less than 1 µg/mL; in [8] it was less than 1 µg/mL; in test [9], 12.5 to 150 µg/mL (≈ 33.4 to 401 µM).

In the case of `CCc1c(-c2ccc3c(ccn3-c3ccccn3)c2)[nH]c(=O)c(C(=O)O)c1O` [Cpd 436, 5-ethyl-4-hydroxy-2-oxo-6-(1-(pyridin-2-yl)-1H-indol-5-yl)-1,2-dihydropyridine-3-carboxylic acid], the minimum inhibitory concentration (MIC) in test [1], in [2], in test [3], in test [4], in test [5] and in test [6] was 12.5 to 150 µg/mL (≈ 33.3 to 400 µM) in each case. In addition, the MIC in test [7] is less than 1 µg/mL; in test [8], 1 to 3.5 µg/mL (≈ 2.66 to 9.32 µM); in [9], 12.5 to 150 µg/mL (≈ 33.3 to 400 µM).

These data come from patent US9409905B2, “Antibacterial compounds and methods for use” (PTC THERAPEUTICS, INC., priority 2011, dated 2016).
